Data published in publication PMC10721329, “Quisinostat is a brain-penetrant radiosensitizer in glioblastoma” (JCI Insight, 2023).
Values joined by “and” are separate entries in the source; they are usually repeats but may differ in a detail not shown here. Identical values can stand only once.

How the values were obtained:
U87 flank tumors = test: U87 flank tumor growth, QST with or without IR; assay type: in vivo, athymic nude mice; settings: for flank tumor volume: U87, individual mice
Protocol: We next examined whether QST treatment alone or in combination with IR would be effective in slowing tumor growth in a flank model of GBM (U87). Tumor-bearing mice receiving IR were treated with 2-Gy fractions on Monday, Wednesday, and Friday (MWF) 2 hours after dosing with either vehicle solution or QST (10 mg/kg), for a total dose of 6 Gy. Following completion of IR, mice continued to receive vehicle or QST until the tumors reached the maximum volume threshold (Figure 5C). […] The mean tumor volume in mice with combination treatment was approximately 4.5-fold less than that in vehicle-treated mice at study completion (Figure 5D). […]
Rad225XL irradiator (Precision X -Ray).
For flank implantations, cells were pre pared in a 1:1 ratio with 100 uL Matrigel (Corning […]
syringe fitted with a 26 -gauge needle. Mice were anesthetized with isoflurane in a plastic desiccator placed in an ex ternally vented fume hood. The U87 -Matrigel cell suspension was then subcutaneously injected into the flank of the mouse on the posterior/lateral aspect of the lower rib cage. Mice were monitored daily , and growth of flank tumor area was measured with a di gital caliper (ThermoFisher) twice a week. […]
(§1) Preparation of QST for In Vivo Use
(§2) For in vivo preparation, QST was dissolved in 50% polyethylene glycol (PEG) 300, 50% sterile water solution for 10 mg/kg dosing. The suspension was then sonicated for 10 minutes to allow the drug to completely dissolve. Finally, the pH of both the drug and the vehicle solutions was adjusted to 7.4 before intraperitoneal dosing. […]
(§3) In Vivo Irradiation Studies
(§4) Intracranial or flank tumor–bearing nude mice were sedated with gaseous isoflurane before
(§5) IR. On the first week of treatment, 2 hours after treatment with QST or vehicle, the mice were […]
treated with 2 Gy of ionizing radiation on MWF for a total 6 Gy (3 doses). Ionizing radiation was administered with the RS2000 series biological research irradiator (Rad Source Technologies).
Treatment of Flank-Implanted Mice with QST and/or Radiation
Implanted flank tumors were allowed to grow until the tumor size reached 100 mm3 volume. Mice were randomized into groups before treatment and underwent treatment on MWF for the entire duration of the experiment until the tumor volumes exceeded 2000 mm3. Treatment groups included vehicle (50% PEG-300), QST alone (10 mg/kg), flank IR treatment with vehicle (2 Gy), and flank IR treatment (2 Gy) with QST (10 mg/kg). For mice receiving IR treatment with or without QST, mice were treated with 2 Gy on MWF for a total 6 Gy during the first week of treatment. QST was administered to mice through intraperitoneal injections 2 hours before flank tumor radiation treatment. Upon completion of the radiation regimen, IR-treated mice subsequently received QST or vehicle alone for the rest of the experiment. Tumor growth and treatment response were monitored by manually measuring the tumor area twice per week starting at 13 days after implantation. Upon reaching the tumor volume threshold (2000 mm3), mice were sacrificed, and plasma and tissue samples were harvested for PD and PK analyses 2 hours after treatment with a final dose of QST (10 mg/kg).
Treatment of Mice with Intracranially Implanted QST and/or Radiation
Mice with implanted tumors were allowed to grow until the tumor bioluminescence score reached […] radiance (p/s/[…]/sr). Mice were randomized into groups before treatment. For survival studies, mice underwent treatment on MWF for the entire duration of the experiment until moribund. For mice receiving IR treatment with or without QST, mice were treated with 2

orthotopic GB126 tumors = test: Bioluminescence imaging of tumor burden, orthotopic GB126 PDX; assay type: in vivo, athymic nude mice; settings: individual mice
Protocol: We additionally questioned whether QST, either alone or in combination with IR, could extend the survival of tumor-bearing mice. In this study, mice received the same treatments described above, but after completion of the 1-week IR regimen, mice continued to receive QST at 10 mg/kg or vehicle solution on MWF until study completion, as determined by large tumor burden and onset of neurological symptoms (Figure 8A). […] Although QST monotherapy slowed tumor growth, median survival for the QST-treated mice was only 4 days longer than for the vehicle-treated mice (P < 0.01), and IR alone increased median survival by 17 days (P < 0.001; Figure 8D). However, combining QST with IR led to a significant increase in median survival (37 days, P < 0.001) compared with the vehicle (Figure 8D). […]
Rad225XL irradiator (Precision X -Ray). […]
Live Bioluminescence Imaging
Two weeks after implantation, mice were examined for tumor growth by monitoring bioluminescence every 7 days using the IVIS Xenogen Spectrum platform. D -Luciferin Potassium Salt (Gold Biotechnology) was dissolved in PBS at a final concentration of 15 mg/mL. All mice were weighed each week and administered D -Luciferin via an intraperitoneal injection (10 μl/g). Fifteen minutes after injection, the mice were sedated using gaseous isoflurane (Piramal) and placed inside an IVIS Spectrum in vivo imaging system (Perkin Elmer) […]
for bioluminescence imaging. The total flux (photons/second) within the region of interest was calculated using the Living Image software 4.5 (Perkin Elmer).
as §1, §2, §3, §4, §5

[1] = cited from earlier work

Cn1cc(CNCC2CCN(c3ncc(C(=O)NO)cn3)CC2)c2ccccc21 [QST, quisinostat]
flank tumor volume (U87 flank tumors; Combo 10 mg/kg Qstat + 6 Gy IR, day 13 post injection): 51.304 mm^3 and 81.733 mm^3 and 83.824 mm^3 and 92.512 mm^3 and 72.03 mm^3 and 53.016 mm^3 and 98.75 mm^3 and 120.094 mm^3 | flank tumor volume (U87 flank tumors; Combo 10 mg/kg Qstat + 6 Gy IR, day 17 post injection): 65.596 mm^3 and 96.768 mm^3 and 135.816 mm^3 and 150.381 mm^3 and 167.445 mm^3 and 67.228 mm^3 and 109.551 mm^3 and 200.688 mm^3 | flank tumor volume (U87 flank tumors; Combo 10 mg/kg Qstat + 6 Gy IR, day 27 post injection): 91.2925 mm^3 and 64 mm^3 and 59.048 mm^3 and 123.008 mm^3 and 158.112 mm^3 and 72.5 mm^3 and 139.707 mm^3 and 397.373 mm^3 | flank tumor volume (U87 flank tumors; Combo 10 mg/kg Qstat + 6 Gy IR, day 31 post injection): 237.141 mm^3 and 56.316 mm^3 and 42.768 mm^3 and 189.216 mm^3 and 218.05 mm^3 and 112.694 mm^3 and 312.188 mm^3 and 612.562 mm^3 | flank tumor volume (U87 flank tumors; Combo 10 mg/kg Qstat + 6 Gy IR, day 34 post injection): 414.304 mm^3 and 54.872 mm^3 and 50.274 mm^3 and 397.488 mm^3 and 349.272 mm^3 and 222.95 mm^3 and 441 mm^3 and 1009.49 mm^3 | flank tumor volume (U87 flank tumors; Quisinostat 10 mg/kg IP MWF, day 13 post injection): 95.2875 mm^3 and 73.75 mm^3 and 78.4195 mm^3 and 109.8 mm^3 and 67.5 mm^3 and 101.92 mm^3 and 86.756 mm^3 and 57.6 mm^3 and 136.416 mm^3 and 41.8275 mm^3 | flank tumor volume (U87 flank tumors; Quisinostat 10 mg/kg IP MWF, day 17 post injection): 210.7 mm^3 and 60.025 mm^3 and 67.76 mm^3 and 121.838 mm^3 and 70 mm^3 and 176.418 mm^3 and 85.054 mm^3 and 154.638 mm^3 and 242.76 mm^3 and 103.823 mm^3 | flank tumor volume (U87 flank tumors; Quisinostat 10 mg/kg IP MWF, day 20 post injection): 451.315 mm^3 and 83.1875 mm^3 and 86.756 mm^3 and 196.02 mm^3 and 52.9 mm^3 and 139.24 mm^3 and 89.056 mm^3 and 128.797 mm^3 and 283.279 mm^3 and 129.762 mm^3 | flank tumor volume (U87 flank tumors; Quisinostat 10 mg/kg IP MWF, day 27 post injection): 1576.6 mm^3 and 97.556 mm^3 and 122.247 mm^3 and 660 mm^3 and 99.0945 mm^3 and 314.792 mm^3 and 96.9105 mm^3 and 423.864 mm^3 and 686.07 mm^3 and 596.712 mm^3 | flank tumor volume (U87 flank tumors; Quisinostat 10 mg/kg IP MWF, day 31 post injection): 2338.49 mm^3 and 75 mm^3 and 125.736 mm^3 and 1098.08 mm^3 and 116.614 mm^3 and 483.181 mm^3 and 162.729 mm^3 and 576 mm^3 and 626.336 mm^3 and 1078.78 mm^3 | flank tumor volume (U87 flank tumors; Quisinostat 10 mg/kg IP MWF, day 34 post injection): 2338.49 mm^3 and 62.5 mm^3 and 144.652 mm^3 and 1381.2 mm^3 and 108.192 mm^3 and 501 mm^3 and 248.832 mm^3 and 786.52 mm^3 and 822.197 mm^3 and 1622.4 mm^3 | mean tumor volume, fold less than in vehicle-treated mice (U87 flank tumors; U87 flank, QST 10 mg/kg + IR 6 Gy combination, at study completion): approximately 4.5 fold | IVIS imaging, bioluminescence (orthotopic GB126 tumors; Qstat 10 mg/kg + IR 6 Gy, day 0 post Tx start (baseline)): 75600000 photons/seconds and 79700000 photons/seconds and 125000000 photons/seconds and 47900000 photons/seconds and 137000000 photons/seconds and 47600000 photons/seconds and 28100000 photons/seconds and 33000000 photons/seconds and 18800000 photons/seconds and 23200000 photons/seconds | IVIS imaging, bioluminescence (orthotopic GB126 tumors; Qstat 10 mg/kg + IR 6 Gy, day 8 post Tx start): 37000000 photons/seconds and 56500000 photons/seconds and 14000000 photons/seconds and 16000000 photons/seconds and 118000000 photons/seconds and 67200000 photons/seconds and 5460000 photons/seconds and 2880000 photons/seconds and 542000 photons/seconds and 178000000 photons/seconds | IVIS imaging, bioluminescence (orthotopic GB126 tumors; Qstat 10 mg/kg + IR 6 Gy, day 29 post Tx start): 111000000 photons/seconds and 75900000 photons/seconds and 60800000 photons/seconds and 55400000 photons/seconds and 150000000 photons/seconds and 22000000 photons/seconds and 8210000 photons/seconds and 10600000 photons/seconds and 10200000 photons/seconds and 15700000 photons/seconds | IVIS imaging, bioluminescence (orthotopic GB126 tumors; Qstat 10 mg/kg + IR 6 Gy, day 36 post Tx start): 9000000 photons/seconds and 4380000 photons/seconds and 371000000 photons/seconds and 40800000 photons/seconds and 426000000 photons/seconds and 6690000 photons/seconds and 51000000 photons/seconds and 114000000 photons/seconds and 111000000 photons/seconds | IVIS imaging, bioluminescence (orthotopic GB126 tumors; Qstat 10 mg/kg + IR 6 Gy, day 43 post Tx start): 943000000 photons/seconds and 1020000000 photons/seconds and 359000000 photons/seconds and 413000000 photons/seconds and 832000000 photons/seconds and 252000000 photons/seconds (2×) and 865000000 photons/seconds and 139000000 photons/seconds and 55200000 photons/seconds | IVIS imaging, bioluminescence (orthotopic GB126 tumors; Qstat 10 mg/kg + IR 6 Gy, day 50 post Tx start): 1010000000 photons/seconds and 2140000000 photons/seconds and 260000000 photons/seconds and 1180000000 photons/seconds and 4090000000 photons/seconds and 2810000000 photons/seconds and 808000000 photons/seconds and 15100000 photons/seconds and 286000000 photons/seconds | IVIS imaging, bioluminescence (orthotopic GB126 tumors; Qstat 10 mg/kg + IR 6 Gy, day 57 post Tx start): 6040000000 photons/seconds and 4070000000 photons/seconds and 1070000000 photons/seconds and 2530000000 photons/seconds and 1020000000 photons/seconds and 1870000000 photons/seconds and 1150000000 photons/seconds | IVIS imaging, bioluminescence (orthotopic GB126 tumors; Qstat 10 mg/kg alone, day 0 post Tx start (baseline), PDX model): 86400000 photons/seconds and 33100000 photons/seconds and 140000000 photons/seconds and 26400000 photons/seconds and 105000000 photons/seconds and 45000000 photons/seconds and 52600000 photons/seconds and 53600000 photons/seconds and 60100000 photons/seconds and 13600000 photons/seconds | IVIS imaging, bioluminescence (orthotopic GB126 tumors; Qstat 10 mg/kg alone, day 8 post Tx start): 42100000 photons/seconds and 58500000 photons/seconds and 585000000 photons/seconds and 200000000 photons/seconds and 458000000 photons/seconds and 884000000 photons/seconds and 49000000 photons/seconds and 19500000 photons/seconds and 581000000 photons/seconds and 107000000 photons/seconds | IVIS imaging, bioluminescence (orthotopic GB126 tumors; Qstat 10 mg/kg alone, day 15 post Tx start): 5290000 photons/seconds and 888000000 photons/seconds and 5530000 photons/seconds and 4270000 photons/seconds and 7590000 photons/seconds and 19400000 photons/seconds | IVIS imaging, bioluminescence (orthotopic GB126 tumors; Qstat 10 mg/kg alone, day 29 post Tx start): 1550000000 photons/seconds and 10600000000 photons/seconds and 15100000000 photons/seconds and 7070000000 photons/seconds and 3880000000 photons/seconds and 387000000 photons/seconds and 12600000000 photons/seconds and 413000000 photons/seconds and 4430000000 photons/seconds | maximum-tolerated dose ([1]; patients, given 3 times weekly): 12 mg | hematologic toxicities (grade 1 and 2), share of patients ([1]; phase I trials): < 5%
